In brackets after ≈: the same amount, converted by molar mass. Where two headings read alike, the source gives them in different places.
What was measured:
[1] = target: T1, purified human FAS (Homo sapiens, UniProt P49327); test: Measurement of FAS enzymatic activity (NADPH oxidation), IC50; type: biochemical
T1 construct: Human FAS was purified from cultured ZR-75-1 human breast cancer cells; endogenous in cells; host or cells: ZR-75-1 human breast cancer cells (ATCC); endogenous enzyme purified by PEG precipitation and Mono Q anion exchange
T1 sequence (P49327 whole entry): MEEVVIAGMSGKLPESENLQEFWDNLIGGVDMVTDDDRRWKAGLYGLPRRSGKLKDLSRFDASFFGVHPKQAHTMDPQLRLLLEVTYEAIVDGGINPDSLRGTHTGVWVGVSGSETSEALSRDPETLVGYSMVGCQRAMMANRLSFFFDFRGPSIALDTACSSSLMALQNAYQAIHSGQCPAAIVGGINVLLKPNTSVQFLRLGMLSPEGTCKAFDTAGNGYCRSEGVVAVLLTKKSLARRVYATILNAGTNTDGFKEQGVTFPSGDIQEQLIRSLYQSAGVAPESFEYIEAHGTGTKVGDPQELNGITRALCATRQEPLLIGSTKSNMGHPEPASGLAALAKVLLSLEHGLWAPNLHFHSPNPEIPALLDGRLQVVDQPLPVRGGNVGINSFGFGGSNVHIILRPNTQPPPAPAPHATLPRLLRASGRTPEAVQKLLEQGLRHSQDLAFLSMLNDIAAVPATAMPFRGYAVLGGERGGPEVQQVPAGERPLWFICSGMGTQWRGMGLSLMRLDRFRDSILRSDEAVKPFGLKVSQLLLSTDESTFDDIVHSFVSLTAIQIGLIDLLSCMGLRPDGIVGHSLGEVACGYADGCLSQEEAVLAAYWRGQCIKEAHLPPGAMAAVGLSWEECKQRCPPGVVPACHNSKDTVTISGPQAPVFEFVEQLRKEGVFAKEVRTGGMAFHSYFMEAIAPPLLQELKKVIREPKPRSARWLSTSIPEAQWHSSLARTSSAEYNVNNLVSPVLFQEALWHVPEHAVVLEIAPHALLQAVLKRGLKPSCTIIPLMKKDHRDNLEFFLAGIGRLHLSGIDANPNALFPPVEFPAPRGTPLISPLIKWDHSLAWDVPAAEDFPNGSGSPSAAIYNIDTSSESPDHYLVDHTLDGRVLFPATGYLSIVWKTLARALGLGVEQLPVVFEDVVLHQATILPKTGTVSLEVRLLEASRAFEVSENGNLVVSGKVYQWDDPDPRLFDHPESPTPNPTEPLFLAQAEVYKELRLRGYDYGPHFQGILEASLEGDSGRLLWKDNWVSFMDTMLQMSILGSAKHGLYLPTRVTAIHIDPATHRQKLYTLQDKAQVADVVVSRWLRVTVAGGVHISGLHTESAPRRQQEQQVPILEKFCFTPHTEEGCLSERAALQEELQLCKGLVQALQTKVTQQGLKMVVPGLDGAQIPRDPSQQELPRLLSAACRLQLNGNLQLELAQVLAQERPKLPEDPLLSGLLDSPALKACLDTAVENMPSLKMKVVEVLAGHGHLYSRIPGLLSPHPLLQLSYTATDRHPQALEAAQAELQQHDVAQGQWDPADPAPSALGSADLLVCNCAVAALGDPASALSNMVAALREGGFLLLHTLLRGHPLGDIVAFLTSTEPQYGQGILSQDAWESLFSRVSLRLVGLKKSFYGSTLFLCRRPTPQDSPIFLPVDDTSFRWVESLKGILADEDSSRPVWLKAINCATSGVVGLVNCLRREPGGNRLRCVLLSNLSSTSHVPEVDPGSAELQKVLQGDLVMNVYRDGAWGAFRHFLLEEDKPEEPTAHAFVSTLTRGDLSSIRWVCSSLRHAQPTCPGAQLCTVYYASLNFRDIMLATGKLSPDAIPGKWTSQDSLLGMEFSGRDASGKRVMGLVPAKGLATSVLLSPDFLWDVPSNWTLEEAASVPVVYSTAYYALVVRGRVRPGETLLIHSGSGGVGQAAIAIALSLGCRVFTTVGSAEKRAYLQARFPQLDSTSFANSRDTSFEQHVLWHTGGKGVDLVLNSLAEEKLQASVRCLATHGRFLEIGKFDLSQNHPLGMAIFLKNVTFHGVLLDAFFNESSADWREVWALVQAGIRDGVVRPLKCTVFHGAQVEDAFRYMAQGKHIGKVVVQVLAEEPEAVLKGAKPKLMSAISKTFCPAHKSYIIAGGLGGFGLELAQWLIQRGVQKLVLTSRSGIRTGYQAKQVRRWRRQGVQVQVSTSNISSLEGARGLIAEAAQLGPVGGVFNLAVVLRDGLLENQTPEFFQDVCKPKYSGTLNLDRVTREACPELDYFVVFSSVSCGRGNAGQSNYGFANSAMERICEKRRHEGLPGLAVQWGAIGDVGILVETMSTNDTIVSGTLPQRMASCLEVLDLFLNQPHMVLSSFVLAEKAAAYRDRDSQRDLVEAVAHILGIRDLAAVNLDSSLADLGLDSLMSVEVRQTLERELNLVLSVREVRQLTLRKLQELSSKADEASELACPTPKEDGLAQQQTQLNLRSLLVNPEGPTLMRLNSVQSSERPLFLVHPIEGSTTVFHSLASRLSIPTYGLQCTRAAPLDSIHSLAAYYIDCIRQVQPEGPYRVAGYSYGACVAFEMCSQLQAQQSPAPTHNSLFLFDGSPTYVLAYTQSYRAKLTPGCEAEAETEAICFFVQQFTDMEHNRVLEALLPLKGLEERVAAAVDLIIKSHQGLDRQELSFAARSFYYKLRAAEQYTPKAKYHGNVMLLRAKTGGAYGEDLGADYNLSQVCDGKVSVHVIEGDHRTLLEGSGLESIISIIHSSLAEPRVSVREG
Experimental: Human FAS was purified from cultured ZR-75-1 human breast cancer cells obtained from the American Type Culture Collection. The procedure, adapted from Linn et al., 1981, and Kuhajda et al., 1994, utilizes hypotonic lysis, successive polyethyleneglycol (PEG) precipitations, and anion exchange chromatography. […] The lysate is centrifuged in JA-20 rotor (Beckman) at 20,000 rpm for 30 minutes at 4° C. and the supernatant is brought to 42 ml with lysis buffer. A solution of 50% PEG 8000 in lysis buffer is added slowly to the supernatant to a final concentration of 7.5%. After rocking for 60 minutes at 4° C., the solution is centrifuged in JA-20 rotor (Beckman) at 15,000 rpm for 30 minutes at 4° C. […] After the rocking and centrifugation is repeated as above, the pellet is resuspended overnight at 4° C. in 10 ml of Buffer A (20 mM K2HPO4, pH 7.4). After 0.45 μM filtration, the protein solution is applied to a Mono Q 5/5 anion exchange column (Pharmacia). The column is washed for 15 minutes with buffer A at 1 ml/minute, and bound material is eluted with a linear 60-ml gradient over 60 minutes to 1 M KCl. […] FAS protein concentration is determined using the Coomassie Plus Protein Assay Reagent (Pierce) according to manufacturer's specifications using BSA as a standard. This procedure results in substantially pure preparations of FAS (>95%) as judged by Coomassie-stained gels. FAS activity is measured by monitoring the malonyl-CoA dependent oxidation of NADPH spectrophotometrically at OD340 in 96-well plates (Dils et al and […] et al, 1975). […] For each experiment, cerulenin (Sigma) is run as a positive control along with DMSO controls, inhibitors, and blanks (no FAS enzyme) all in duplicate. The assay is performed on a Molecular Devices SpectraMax Plus Spectrophotometer. The plate containing FAS, buffers, inhibitors, and controls are placed in the spectrophotometer heated to 37° C. Using the kinetic protocol, the wells are blanked on duplicate wells containing 100 μl of 100 mM K2HPO4, pH 6.5 and the plate is read at OD340 at 10 sec intervals for 5 minutes to measure any malonyl-CoA independent oxidation of NADPH. The plate is removed from the spectrophotometer and malonyl-CoA (67.4 μM, final concentration per well) and […] (61.8 μM, final concentration per well) are added to each well except to the blanks. The plate is read again as above with the kinetic protocol to measure the malonyl-CoA dependent NADPH oxidation. The difference between the Δ OD340 for the malonyl-CoA dependent and non-malonyl-CoA dependent NADPH oxidation is the specific FAS activity. Because of the purity of the FAS preparation, non-malonyl-CoA dependent NADPH oxidation is negligible. […] Graphs of Δ OD340 versus time are plotted by the SOFTmax PRO software (Molecular Devices) for each compound concentration.

[2] = test system: MCF-7 human breast cancer cells; test: [14C]acetate incorporation into total lipids; type: cell-based; details: for 14C(IC50): [14C]acetate incorporation into lipids; for IC50: Homo sapiens, MCF7, [14C]acetate incorporation into lipids
Experimental: This assay measures the incorporation of [^14C]acetate into total lipids and is a measure of fatty acid synthesis pathway activity in vitro. It is utilized to measure inhibition of fatty acid synthesis in vitro.
MCF-7 human breast cancer cells cultured as above, are plated at 5×10^4 cells per well in 24-well plates. […] DMSO is added to triplicate wells for a vehicle control. C75 is run at 5 and 10 μg/ml in triplicate as positive controls. After 4 hours of incubation, 0.25 μCi of [^14C]acetate (10 μl volume) is added to each well.
After 2 hours of additional incubation, medium is aspirated from the wells and 800 μl of chloroform:methanol (2:1) and 700 μl of 4 mM MgCl2 is added to each well. Contents of each well are transferred to 1.5 Eppendorf tubes, and spun at full-speed for 2 minutes in a high-speed Eppendorf Microcentrifuge 5415D. After removal of the aqueous (upper) layer, an additional 700 μl of chloroform:methanol (2:1) and 500 μl of 4 mM MgCl2 are added to each tube and then centrifuged for 1 minutes as above. The aqueous layer is removed with a Pasteur pipette and discarded. An additional 400 μl of chloroform:methanol (2:1) and 200 μl of 4 mM MgCl2 are added to each tube, then centrifuged and aqueous layer is discarded. The lower (organic) phase is transferred into a scintillation vial and dried at 40° C. under N2 gas. Once dried, 3 ml of scintillant (APB #NBC5104) is added and vials are counted for ^14C. The Beckman Scintillation counter calculates the average cpm values for triplicates.
The IC50 for the compounds is defined as the concentration of drug leading to a 50% reduction in [^14C]acetate incorporation into lipids compared to controls. […] The average cpm values are computed by the Beckman scintillation counter (Model LS6500) for each compound concentration. Computation of linear regression, best-fit line, r^2, and 95% confidence intervals are calculated using Prism Version 3.0 (Graph Pad Software).

[3] = test system: MCF-7 human breast cancer cells; test: Crystal violet cell growth assay; type: cell-based; details: MCF7, MCF-7, 72 hours, read-out: Cr. Violet(IC50)
Experimental: The crystal violet assay measure cell growth but not cytotoxicity. This assay employs crystal violet staining of fixed cells in 96-well plates with subsequent solubilization and measurement of OD490 on a spectrophotometer. The OD490 corresponds to cell growth per unit time measured. Cells are treated with the compounds of interest or vehicle controls and IC50 for each compound is computed.
To measure the cytotoxicity of specific compounds against cancer cells, 5×10^4 MCF-7 human breast cancer cells, obtained from the American Type Culture Collection are plated per well in 24 well plates in DMEM medium with 10% fetal bovine serum, penicillin, and streptomycin. Following overnight culture at 37° C. and 5% CO2, the compounds to be tested, dissolved in DMSO, are added to the wells in 1 μl volume at the following concentrations: 50, 40, 30, 20, and 10 μg/ml in triplicate. Additional concentrations are tested if required. 1 μl of DMSO is added to triplicate wells are the vehicle control. C75 is run at 10, and 5 μg/ml in triplicate as positive controls.
After 72 hours of incubation, cells are stained with 0.5 ml of Crystal Violet stain (0.5% in 25% methanol) in each well. After 10 minutes, wells are rinsed, air dried, and then solubilized with 0.5 ml 10% sodium dodecylsulfate with shaking for 2 hours.

[4] = Weight loss screen in Balb/C mice; type: in vivo; details: for Deaths in weight loss screen: 60 mg/kg; for change in vivo at 30 mg/kg / change in vivo at 60 mg/kg: Mus musculus, read-out: Weight Loss; for change in vivo at 60 mg/kg: ip
Experimental: Balb/C mice (Jackson Labs) are utilized for the initial weight loss screening. Animals are housed in temperature and 12 hour day/night cycle rooms and fed mouse chow and water ad lib. Three mice are utilized for each compound tested with vehicle controls in triplicate per experiment. For the experiments, mice are housed separately for each compound tested three mice to a cage. […] Mice are observed and weighed daily; average weights and standard errors are computed with Excel (Microsoft). The experiment continues until treated animals reach their pretreatment weights. […]

Row | Compound | FAS(IC50) [1] | IC50 [3] | IC50 [2] | also measured
1 | C=CCOC1=CC(=O)S[C@]1(C)CCCCCC (racemic) | Neg | 8.1 µg/mL (≈ 31.8 µM) | – | 14C(IC50) [2]: Neg; Deaths in weight loss screen ([4]; day2, three mice): 2 of 3 dead; change in vivo at 30 mg/kg ([4]; 48 h, 30 mg/kg, day2): 8.8%
2 | CCCCCCCCC1(C)SC(=O)C(C)=C1OC (stereo not drawn) | Neg | 15.9 ± 1.9 µg/mL (≈ 58.8 µM) | 63.8 µg/mL (≈ 236 µM) | –
3 | C=C/C(C)=C/C1(C)SC(=O)C=C1O (stereo not drawn) | – | > 50 µg/mL | – | IC50 [1]: 44.8 µM; change in vivo at 60 mg/kg ([4]; 72 h, 60 mg/kg intraperitoneally, day3): 7.8%
4 | C#CCOC1CC(=O)S[C@]1(C)CCCCCC (mixture of isomers) | Neg | 12.1 ± 1.5 µg/mL | 21.9 ± 1.5 µg/mL | Deaths in weight loss screen ([4]; day2, three mice): 3 of 3 dead; change in vivo at 30 mg/kg ([4]; 72 h, 30 mg/kg, day3): 5.9%
5 | C=CCOC1=CC(=O)S[C@]1(C)CCCCCCCC (racemic) | Neg | 11 µg/mL (≈ 38.9 µM) | – | 14C(IC50) [2]: Neg; Deaths in weight loss screen ([4]; day3, three mice): 3 of 3 dead; change in vivo at 30 mg/kg ([4]; 48 h, 30 mg/kg, day2): 4.7%
6 | CCCC/C=C/C=C/C1(C)SC(=O)C=C1O (stereo not drawn) | – | 43.9 ± 4.8 µg/mL (≈ 184 µM) | 25.7 µg/mL (≈ 108 µM) | IC50 [1]: 36.1 µM; change in vivo at 60 mg/kg ([4]; 144 h): 11%
7 | CCCCCCCC[C@@]1(C)SC(=O)C=C1OCC(=O)OCC (racemic) | Neg | 17.9 ± 5.1 µg/mL (≈ 54.5 µM) | 10.8 ± 5.8 µg/mL (≈ 32.9 µM) | change in vivo at 30 mg/kg ([4]; 24 h): 4.5%; change in vivo at 60 mg/kg ([4]; 24 h, 60 mg/kg intraperitoneally, day1): 1.8%
8 | COC1=CC(=O)SC1(C)Cc1ccccc1 (stereo not drawn) | Neg | 20.9 µg/mL (≈ 89.2 µM) | – | –

Now from value to molecule, other results behind:

Row | FAS(IC50) [1] | IC50 [3] | IC50 [2] | Compound | also measured
9 | Neg | 32.5 ± 11.7 µg/mL (≈ 94.6 µM) | 9.8 µg/mL (≈ 28.5 µM) | CCCCCC[C@@]1(C)SC(=O)C=C1OCC(=O)NCC(=O)OC (racemic) | –
10 | Neg | 8.4 µg/mL (≈ 29.5 µM) | 12.1 ± 0.1 µg/mL (≈ 42.5 µM) | CCCCCCCC[C@@]1(C)SC(=O)C(C(C)=O)=C1O (racemic) | change in vivo at 60 mg/kg ([4]; 48 h, 60 mg/kg intraperitoneally, day2): 8.2%
11 | – | 45.3 µg/mL (≈ 134 µM) | 14.7 µg/mL (≈ 43.4 µM) | CCCCCCCC[C@@]1(C)SC(=O)C(C(=O)C(F)(F)F)=C1O (racemic) | IC50 ([1]; unit inferred): 121 µM
12 | Neg | 10.3 ± 0.3 µg/mL (≈ 30.9 µM) | 6.8 µg/mL (≈ 20.4 µM) | CCCCCCCC[C@@]1(C)SC(=O)C=C1OCCCCCl (racemic) | –
13 | Neg | 16.3 µg/mL (≈ 53.5 µM) | 8.6 µg/mL (≈ 28.2 µM) | CCCCCC[C@@]1(C)SC(=O)C=C1OCCCCCl (racemic) | –
14 | Neg | 33.7 µg/mL (≈ 112 µM) | 13.8 ± 1.1 µg/mL (≈ 45.9 µM) | CCCCCCCC[C@@]1(C)SC(=O)C=C1OCC(=O)O | –
15 | Neg | 38.6 µg/mL (≈ 129 µM) | 22.6 µg/mL (≈ 75.7 µM) | CCCCCCCC[C@@]1(C)SC(=O)C=C1OC(=O)CC (racemic) | –
